Measurements from patent publication US20240002419A1, “RADIATION-ACTIVATED TETRAVALENT PLATINUM COMPLEX AND USE THEREOF” (priority 2020, published 2024).

Assay: Yield of reduced metal compounds under X-ray irradiation
Assay type: physicochemical
Conditions: not given
Procedure: Operation steps of test: the compound was dissolved in ultrapure water to prepare a 100 μM metal compound solution, and oxygen gas in the solution was removed by bubbling nitrogen gas for 15 minutes. […] Finally, the remaining amount of raw material was measured, the disappeared concentration of the reactant was calculated, and the radiation yield was calculated (radiation yield=disappeared concentration of reactant/radiation dose).

| SMILES | Yield (radiation yield = disappeared concentration of reactant/radiation dose) |
| --- | --- |
| O=P([O-])([O-])O.[K+].[K+] [Compound 3, dipotassium hydrogen phosphate] | (No metal cation reduction |
| [Cl-].[Cl-].[Mg+2] [Compound 4, magnesium chloride] | (No metal cation reduction |
| O=S(=O)([O-])[O-].[Cu+2] [Compound 13, copper sulfate] | 209 nM/Gy |

Same assay, conditions: 100 μM in deoxygenated ultrapure water, X-rays 0-1000 Gy, 4 Gy/min

| SMILES | Yield (radiation yield = disappeared concentration of reactant/radiation dose) |
| --- | --- |
| [Cl-].[Na+] [Compound 1, sodium chloride] | (No metal cation reduction |
| [Cl-].[K+] [Compound 2, potassium chloride] | (No metal cation reduction |
| [Cl][Fe]([Cl])[Cl] [Compound 5, ferric chloride] | 578 nM/Gy |
| [K+].[K+].[O]=[Cr](=[O])([O-])[O][Cr](=[O])(=[O])[O-] [Compound 9, potassium dichromate] | 87 nM/Gy |
| [Cl][Ni][Cl] [Compound 10, nickel chloride] | 347 nM/Gy |
| O=[N+]([O-])[O-].[Ag+] [Compound 14, silver nitrate] | 576 nM/Gy |
| C1=Cc2cc3ccc(cc4nc(cc5ccc(cc1n2)[nH]5)C=C4)[nH]3.[Fe] [Compound 16, iron porphyrin] | 598 nM/Gy |
| [NH2][Pt]([NH2])([Cl])([Cl])([O]C(=O)CCCC[P+](c1ccccc1)(c1ccccc1)c1ccccc1)[O]C(=O)CCCC[P+](c1ccccc1)(c1ccccc1)c1ccccc1 [Compound 18] | 427 nM/Gy |

Assay: Radiation-driven (γ-ray) release of Pt(II) drugs from Pt(IV) complexes, UPLC-MS and NMR
Assay type: physicochemical
Conditions: γ-rays (60Co, 40 kGy), D2O, deoxygenated
Description: To explore the generalizability of this strategy, we further conducted the same study on two other platinum-based drugs commonly used globally, carboplatin and cisplatin.

| SMILES | Product released after irradiation |
| --- | --- |
| [NH2][Pt]1([NH2])([O]C(=O)CCC(=O)O)([O]C(=O)CCC(=O)O)[O]C(=O)C2(CCC2)C(=O)[O]1 [carboPt(IV)-(Suc)2] | release the corresponding Pt(II) drugs |
| N.N.O=C(O)CCC(=O)[O][Pt]([Cl])([Cl])[O]C(=O)CCC(=O)O [cisPt(IV)-(Suc)2] | release the corresponding Pt(II) drugs |
| NC1CCCCC1N.O=C(O)CCC(=O)[O][Pt]1([O]C(=O)CCC(=O)O)[O]C(=O)C(=O)[O]1 [oxaliPt(IV)-(Suc)2] | released product was oxaliplatin |
